From ChEMBL document CHEMBL6074685, “Design, synthesis and biological evaluation of novel diaryl-substituted fused nitrogen heterocycles as tubulin polymerization inhibitors to overcome multidrug resistance in vitro and in vivo” (Eur J Med Chem, 2025)
pIC50: −log10 of the molar value. The source made the active and inactive calls. The rule behind the calls is not given here.

How the values were obtained:
A549/TR [1] = test: Antiproliferative activity against human A549/T cell assessed as cell growth inhibition incubated for 48 hrs by MTT assay; format: functional, cell-based
A549 = test: Antiproliferative activity against human A549 cells assessed as cell growth inhibition incubated for 48 hrs by MTT assay; conditions: A549, 48 h
[2] = Resistance index, ratio of IC50 for human A549/T cells to IC50 for human A549 cells; format: functional
A549/TR [3] = test: Antiproliferative activity against human A549/T cell assessed as cell growth inhibition in presence of verapamil incubated for 48 hrs by MTT assay; format: functional, cell-based
[4] = Metabolic stability in human liver microsome assessed as half life measured upto 50 mins by LC-MS/MS analysis; format: ADME; conditions: liver microsomes
[5] = Metabolic stability in human liver microsome assessed as intrinsic clearance measured upto 50 mins by LC-MS/MS analysis; format: ADME; conditions: liver microsomes, read-out: CLH
[6] = Metabolic stability in mouse liver microsome assessed as half life measured upto 50 mins by LC-MS/MS analysis; format: ADME; conditions: liver microsomes
[7] = Metabolic stability in mouse liver microsome assessed as intrinsic clearance measured upto 50 mins by LC-MS/MS analysis; format: ADME; conditions: liver microsomes, read-out: CLH

Structure (SMILES) | pIC50 (A549/TR [1]) | pIC50 (A549) | Ratio IC50 [2] | further results
COc1cc(-c2cc(Cl)cc3[nH]cnc23)cc(OC)c1OC | < 4.30 | < 4.30 | – | –
COc1ccc(-c2cc(-c3cc(OC)c(OC)c(OC)c3)c3nc[nH]c3c2)cc1F | 6.52 | 6.96 | 2.73 | –
COc1cc(-c2cc(Br)cc3[nH]cnc23)cc(OC)c1OC | 4.43 | 4.54 | 1.28 | –
COc1ccc(Nc2nc(Nc3cc(OC)c(OC)c(OC)c3)c3ccccc3n2)cc1F | 4.96 | 5.56 | 3.96 | –
COc1ccc(-c2cc(-c3cc(OC)c(OC)c(OC)c3)c3nc[nH]c3c2)cc1N | 6.80 | 7.48 | 4.84 | –
COc1ccc(-c2cncc3[nH]c(=O)n(-c4cc(OC)c(OC)c(OC)c4)c23)cc1F | < 4.30 | – | – | –
COc1cc(-c2cccc3[nH]cnc23)cc(OC)c1OC | < 4.30 | < 4.30 | – | –
COc1cc(-c2cc(-c3ccc(C)c(F)c3)cc3[nH]cnc23)cc(OC)c1OC | 6.42 | 6.96 | 3.45 | –
COc1ccc(-c2nc3c(c(Nc4cc(OC)c(OC)c(OC)c4)n2)SCC3)cc1F | < 4.30 | < 4.30 | – | –
COc1ccc(-c2nc(Nc3cc(OC)c(OC)c(OC)c3)c3cccnc3n2)cc1F | < 4.30 | 5.27 | >9.43 | –
COc1ccc(-c2cc(Oc3cc(OC)c(OC)c(OC)c3)c3ncn(C)c3c2)cc1F | 6.39 | 6.70 | 2.05 | –
COc1ccc2nc(-c3ccc(OC)c(F)c3)nc(Nc3cc(OC)c(OC)c(OC)c3)c2c1 | 5.05 | 5.69 | 4.37 | –
COc1ccc(-c2cc(-c3ccccc3OC)c3nc[nH]c3c2)cc1N | 6.46 | 6.85 | 2.5 | –
COc1cc(-c2cc(-c3ccc(C)c(N)c3)cc3[nH]cnc23)cc(OC)c1OC | 6.30 | 6.62 | 2.08 | –
COc1ccc(-c2cc(-c3cc(OC)c(OC)c(OC)c3)c3nc[nH]c3c2)cn1 | 6.41 | 6.54 | 1.34 | –
COc1cc(-c2cc(-c3ccc(C4CC4)cc3)cc3[nH]cnc23)cc(OC)c1OC | 5.17 | 5.31 | 1.34 | –
COc1ccc(-c2cncc3[nH]c(=O)n(Cc4cc(OC)c(OC)c(OC)c4)c23)cc1O | < 4.30 | – | – | –
COc1ccc(-c2cc(-c3cc(OC)c(OC)c(OC)c3)c3nc[nH]c3c2)cc1O | 6.62 | 7.23 | 4.06 | –
COc1ccc(-c2cc(Oc3cc(OC)c(OC)c(OC)c3)c3nc[nH]c3c2)cc1F | 4.99 | 5.29 | 1.99 | –
COc1ccc(-c2cc(-c3ccc(OC)c(N)c3)cc3[nH]cnc23)cc1 | 4.78 | 4.96 | 1.5 | –
COc1ccc(-c2cc(-c3cc(OC)c(OC)c(OC)c3)c3nc[nH]c3c2)cc1CO | 5.80 | 6.33 | 3.36 | –
COc1ccc(-c2nc(N(C)c3cc(OC)c(OC)c(OC)c3)c3ncn(C)c3n2)cc1F | 4.78 | 5.00 | 1.67 | –
COc1ccc(-c2nc(Nc3cc(OC)c(OC)c(OC)c3)c3cc(OC)c(OC)cc3n2)cc1F | < 4.30 | < 4.30 | – | –
COc1ccc(-c2cc(-c3cc(OC)c(OC)c(OC)c3)c3[nH]c(=O)[nH]c3c2)cc1F | 5.52 | 5.90 | 2.37 | –

Structure (SMILES) | pIC50 (A549/TR [1]) | pIC50 (A549) | Ratio IC50 [2] | further results
COc1ccc(-c2cc3[nH]c(=O)[nH]c3c(Oc3cc(OC)c(OC)c(OC)c3)n2)cc1F | 4.66 | – | – | –
COc1ccc(-c2cc(-c3cc(OC)c(OC)c(OC)c3)c3nc[nH]c3c2)cc1 | 5.82 | 6.11 | 1.94 | –
COc1cc2c(c(OC)c1OC)-c1ccc(OC)c(=O)cc1[C@@H](NC(C)=O)CC2 [COLCHICINE] | 6.55 | 7.66 | 12 | Activity (A549/TR [3]): Active
COc1ccc(-c2cc(-c3cc(OC)c(OC)c(OC)c3)c3nc(C)[nH]c3c2)cc1O | 5.72 | 6.28 | 3.58 | –
COc1ccc(-c2nc(Nc3cc(OC)c(OC)c(OC)c3)c3ccccc3n2)cc1F | < 4.30 | 4.99 | >4.84 | –
CC[C@]1(O)C[C@H]2CN(CCc3c([nH]c4ccccc34)[C@@](C(=O)OC)(c3cc4c(cc3OC)N(C=O)[C@H]3[C@@](O)(C(=O)OC)[C@H](OC(C)=O)[C@]5(CC)C=CCN6CC[C@]43[C@@H]65)C2)C1 [VINCRISTINE] | 5.36 | 7.68 | 207 | –
COc1ccc(-n2c(=O)[nH]c3cnc(-c4cc(OC)c(OC)c(OC)c4)cc32)cc1O | < 4.30 | – | – | –
COc1ccc(-c2nc3c(c(Nc4cc(OC)c(OC)c(OC)c4)n2)CCCC3)cc1F | 4.93 | 4.98 | 1.12 | –
COc1ccc(-c2cc(-c3cc(OC)c(OC)c(OC)c3)c3[nH]c(=O)[nH]c3c2)cc1O | 6.33 | 6.54 | 1.62 | –
COc1ccc(-c2cc(-c3cc(OC)c(OC)c(OC)c3)c3nc(C)[nH]c3c2)cc1F | 4.99 | 5.27 | 1.9 | –
O=C(c1ccc(F)cc1)C1CCN(CCn2c(=O)[nH]c3ccccc3c2=O)CC1 [KETANSERIN] | – | – | – | half-life [4]: 37 min; CLint scaled [5]: 47 mL/min/kg; half-life [6]: 13 min; CLint scaled [7]: 419 mL/min/kg
COc1cc(-c2cc(-c3ccc(Cl)c(N)c3)cc3[nH]cnc23)cc(OC)c1OC | 6.04 | 6.39 | 2.21 | –
COc1ccc(-c2nc3cnccc3n2-c2cc(OC)c(OC)c(OC)c2)cc1O | < 4.30 | – | – | –
COc1ccc(-c2cncc3[nH]c(=O)n(-c4cc(OC)c(OC)c(OC)c4)c23)cc1O | < 4.30 | – | – | –
CC(=O)O[C@@]12CO[C@@H]1C[C@H](O)[C@@]1(C)C(=O)[C@H](O)C3=C(C)[C@@H](OC(=O)[C@H](O)[C@@H](NC(=O)OC(C)(C)C)c4ccccc4)C[C@@](O)([C@@H](OC(=O)c4ccccc4)[C@H]21)C3(C)C [DOCETAXEL ANHYDROUS] | 5.11 | 9.00 | 7840 | Activity (A549/TR [3]): Active
CCOc1ccc(-c2cc(-c3cc(OC)c(OC)c(OC)c3)c3nc[nH]c3c2)cc1 | 5.53 | 5.99 | 2.86 | –
COc1ccc(-c2cc(-c3cc(OC)c(OC)c(OC)c3)c3cc[nH]c3c2)cc1F | 4.80 | 5.32 | 3.29 | –
COc1ccc(-c2nc3c(c(Nc4cc(OC)c(OC)c(OC)c4)n2)CCC3)cc1F | 4.45 | 4.64 | 1.54 | –
COc1cc(-c2cc(-c3ccc(C)cc3)cc3[nH]cnc23)cc(OC)c1OC | 6.01 | 6.17 | 1.42 | –
COc1ccc(-c2cc3c([nH]c(=O)n3-c3cc(OC)c(OC)c(OC)c3)c(C(N)=O)n2)cc1O | 4.47 | – | – | –
COc1ccc(-c2nc(Nc3cc(OC)c(OC)c(OC)c3)c3ncn(C)c3n2)cc1F | 5.41 | 5.92 | 3.23 | –
COc1cc(-c2cc(C)cc3[nH]cnc23)cc(OC)c1OC | < 4.30 | < 4.30 | – | –
COc1cc(-c2cc(-c3ccc(C)c(O)c3)cc3[nH]cnc23)cc(OC)c1OC | 6.05 | 6.72 | 4.68 | –
CCC1=C[C@@H]2CN(C1)Cc1c([nH]c3ccccc13)[C@@](C(=O)OC)(c1cc3c(cc1OC)N(C)[C@H]1[C@@](O)(C(=O)OC)[C@H](OC(C)=O)[C@]4(CC)C=CCN5CC[C@]31[C@@H]54)C2 | – | – | – | Activity (A549/TR [3]): Active
